Reference: US20230002756A1, “High Performance Platform for Combinatorial Genetic Screening” (THE TRUSTEES OF THE UNIVERSITY OF PENNSYLVANIA, priority 2019, published 2023)
“Also recorded” adds a separate entry of the source.

How the values were obtained:
[1] = system: HEK293T d2GFP reporter line; test: GFP disruption assay; format: cell-based, human; conditions: for gene editing activity / efficiency (GFP reporter disruption): HEK293T GFP reporter cell line
From the text: GFP disruption assay. HEK293T cells were first lentivirally transduced with a destabilized GFP (d2GFP) reporter (derived from Addgene #14760). The resulting HEK293T d2GFP reporter line was then transiently transfected with indicated AsCas12a vector and a vector expressing GFP-targeting crRNA. This d2GFP HEK293T reporter line was used to evaluate the knockout efficiency of seven Addgene-available Cas12a systems (Butyrivibrio sp., Thiomicrospira sp. XS5, Moraxella bovoculi, Prevotella bryantii, Bacteroidetes oral, Lachnospiraceae bacterium, and Acidaminococcus). In addition, AsCas12a vector contained 1, 2, 4, or 6 SV40 or c-Myc NLS cloned into either the N- or C-terminus. The crRNA vector contained an expression marker for mCherry for successful transfection tracking. Cells were cultured for 3 days and subjected to flow cytometry to measure knockdown of GFP using the Guava Easycyte 10 HT instrument (Millipore). Percent GFP disruption is plotted. Two independent GFP-targeting crRNA are presented.

K562 cells = test: Competition-based cellular proliferation assay; format: cell-based
From the text: Competition-based cellular proliferation assays. Indicated AsCas12a-expressing cell lines were infected with a lentivirus (pRG212) encoding crRNA, targeting essential genes or known cancer dependencies, linked to a GFP reporter, to track successful transduction, at a multiplicity of infection (MOI) of around 0.2-0.5. The percentage of crRNA-positive (GFP-positive) cell population was monitored over time using the Guava Easycyte 10 HT instrument (Millipore). To assess the impact of a specific single-crRNA or dual-crRNA on cellular proliferation, final time point GFP % was divided by initial time point GFP % to calculate the negative selection fold-change of the crRNA-positive cell population.
To address the low knockout efficiency in mammalian cells, the AsCas12a system was subjected to three levels of optimization. In order to evaluate the knockout efficiency of the system, AsCas12a and its crRNA were expressed using a two-vector lentiviral expression strategy and conducted a competition-based cellular proliferation assay, a reliable proxy for dropout screening (FIG. 1A, 1B). crRNAs targeting known essential genes were designed, including replication protein PCNA and cyclin-dependent kinase CDK1. AsCas12a knockout efficiency was then assessed by measuring the negative selection strength of essential gene-targeting crRNAs in a 16-day time-course. […]

AsCas12a: Acidaminococcus Cas12a, wild type RNA-programmable DNA endonuclease
gene editing activity / efficiency (GFP reporter disruption) [1]: high gene editing activity
knockout efficiency relative to SpCas9 ([1]; in human cells): approximately one third

enAsCas12a: AsCas12a with E174R and S542R mutations, used with 6xNLS and dual-DR crRNA; the improved/engineered Cas12a system
knockout efficiency (K562 cells; crRNAs targeting essential genes PCNA and CDK1, 16-day time-course): enhances knockout efficiency
effect on cellular proliferation (toxicity to the cells) (K562 cells; non-targeting crRNAs and crRNAs targeting introns of PCNA and CDK1): no obvious effect on cellular proliferation; also recorded: does not significantly affect cellular proliferation
gene editing activity / efficiency (GFP reporter disruption) [1]: comparable to Cas9
